{"source": "patent US12202829B2", "about": "“Heterocyclic compound” (FIMECS, Inc., priority 2018, dated 2025)", "note": "Structures can show the parent of a compound that is named as a salt.", "data": [{"molecular_target": "T1, human XIAP_BIR3 domain purified protein (Homo sapiens, UniProt P98170)", "T1 construct": "purchased R & D", "T1 sequence (P98170 252-356 limits assumed)": "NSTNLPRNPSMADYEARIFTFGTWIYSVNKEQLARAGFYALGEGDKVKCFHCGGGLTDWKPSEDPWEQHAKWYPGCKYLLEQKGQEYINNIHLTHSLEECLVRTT", "experiment": "XIAP binding inhibitory activity, HTRF method with b-Smac ligand", "conditions": "second symbol of the cell; read-out: XIAP binding 50% inhibitory concentration (IC50 value)", "how_it_was_run": "(§1)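 HTRF competition: human XIAP BIR3 and C-terminally biotinylated Smac peptide AVPIAQK, each diluted to 90 nM before addition, in HEPES pH 7.5 buffer with NaCl, BSA, Triton X-100. Eu-cryptate anti-His/streptavidin-XL665 detection after ≥4 h at room temperature; inhibition % from 665/615 ratio versus no-compound control.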", "units": {"IC50": "µM"}, "values": [{"compound": "CN[C@@H](C)C(=O)N[C@H](C(=O)N1CCN(C(=O)c2cc3cc(F)c(OC)cc3n2C)C[C@H]1C)C1CCCCC1", "note": "[Example 57, (S)—N—[(S)-1-Cyclohexyl-2-[(R)-4-[(5-fluoro-6-methoxy-1-methyl-1H-indole-2carbonyl]-2-methylpiperazin-1-yl]-2-oxoethyl]-2-(methylamino)propanamide trifluoroacetate]", "IC50": "0.3 to 3"}, {"compound": "CN[C@@H](C)C(=O)N[C@H](C(=O)N1CCN(C(=O)c2cc3cc(F)ccc3n2C)C[C@H]1C)C1CCCCC1", "note": "[Example 58, (S)—N—((S)-1-Cyclohexyl-2-((R)-4-(5-fluoro-1-methyl-1H-indole-2-carbonyl)-2-methylpiperazin-1-yl)-2-oxoethyl)-2-(methylamino)propanamide Trifluoroacetate]", "IC50": "0.3 to 3"}, {"compound": "CN[C@@H](C)C(=O)N[C@H](C(=O)N1C[C@H]2CC[C@@H]1CN2C(=O)c1cc2cc(F)c(F)cc2n1C)C1CCCCC1", "note": "[Example 59, (2S)-N-((1S)-1-cyclohexyl-2-(5-((5,6-difluoro-1-methyl-1H-indol-2-yl)carbonyl)-2,5-diazabicyclo[2.2.2]octan-2-yl)-2-oxoethyl)-2-(methylamino)propanamide]", "IC50": "3 to 30"}, {"compound": "CN[C@@H](C)C(=O)N[C@H](C(=O)N1C2CC1CN(C(=O)c1cc3cc(F)c(F)cc3n1C)C2)C1CCCCC1", "note": "[Example 60, (2S)-N-((1S)-1-cyclohexyl-2-(3-((5,6-difluoro-1-methyl-1H-indol-2-yl)carbonyl)-3,6-diazabicyclo[3.1.1]heptan-6-yl)-2-oxoethyl)-2 (methylamino)propanamide]", "IC50": "3 to 30"}, {"compound": "C[C@@H]1CN(CC(=O)N2CCN(C(=O)c3cc4cc(F)c(F)cc4n3C)C[C@H]2C)[C@@H](COCCOCCOCCO)CN1", "note": "[Example 64, 1-((R)-4-(5,6-Difluoro-1-methyl-1H-indole-2-carbonyl)-2-methylpiperazin-1-yl)-2-((2R,5R)-2-(2-(2-(2-hydroxyethoxy)ethoxy)ethoxymethyl)-5-methylpiperazin-1-yl)ethan-1-one]", "IC50": "3 to 30"}, {"compound": "C[C@@H]1CN(CC(=O)N2CCN(C(=O)c3cc4cc(F)c(F)cc4n3C)C[C@H]2C)[C@@H](COCCOCCOCCOCCO)CN1", "note": "[Example 65, 1-((R)-4-(5,6-Difluoro-1-methyl-1H-indole-2-carbonyl)-2-methylpiperazin-1-yl)-2-((2R,5R)-2-(13-hydroxy-2,5,8,11-tetraoxatridecyl)-5-methylpiperazin-1-yl)ethan-1-one]", "IC50": "3 to 30"}, {"compound": "CN[C@@H](C)C(=O)N[C@H](C(=O)N1CCN(C(=O)c2cc3c(OCCOCCOCCOCc4ccccc4)c(F)c(F)cc3n2C)CC1)C1CCCCC1", "note": "[Example 66, (S)—N—((S)-2-(4-(4-(2-(2-(2-(Benzyloxy)ethoxy)ethoxy)ethoxy)-5,6-difluoro-1-methyl-1H-indole-2-carbonyl)piperazin-1-yl)-1-cyclohexyl-2-oxoethyl)-2-(methylamino)propanamide]", "IC50": "3 to 30"}, {"compound": "CN[C@@H](C)C(=O)N[C@H](C(=O)N1CCN(C(=O)c2cc3c(OCCOCCOCCO)c(F)c(F)cc3n2C)CC1)C1CCCCC1", "note": "[Example 67, (S)—N—((S)-1-Cyclohexyl-2-(4-(5,6-difluoro-4-(2-(2-(2-hydroxyethoxy)ethoxy)ethoxy)-1-methyl-1H-indole-2-carbonyl)piperazin-1-yl)-2-oxoethyl)-2-(methylamino)propanamide]", "IC50": "0.3 to 3"}, {"compound": "CN[C@@H](C)C(=O)N[C@H](C(=O)N1CCN(C(=O)c2cc3c(OCCOCCOCCOCCO)c(F)c(F)cc3n2C)CC1)C1CCCCC1", "note": "[Example 68, (S)—N—((S)-1-Cyclohexyl-2-(4-(5,6-difluoro-4-(2-(2-(2-(2-hydroxyethoxy)ethoxy)ethoxy)ethoxy)-1-methyl-1H-indole-2-carbonyl)piperazin-1-yl)-2-oxoethyl)-2-(methylamino)propanamide]", "IC50": "0.3 to 3"}, {"compound": "CN[C@@H](C)C(=O)N[C@H](C(=O)N1CCN(C(=O)c2ccc3c(c2)cc(C)n3CCOCCOCCO)CC1)C1CCCCC1", "note": "[Example 69, (S)—N—((S)-1-Cyclohexyl-2-(4-(1-(2-(2-(2-hydroxyethoxy)ethoxy)ethyl)-2-methyl-1H-indole-5-carbonyl)piperazine-1-yl)-2-oxoethyl)-2-(methylamino)propanamide]", "IC50": "< 0.3"}, {"compound": "CN[C@@H](C)C(=O)N[C@H](C(=O)N1CCN(C(=O)c2ccc3c(c2)cc(C)n3CCOCCOCCOCCO)CC1)C1CCCCC1", "note": "[Example 70, (S)—N—((S)-1-Cyclohexyl-2-(4-(1-(2-(2-(2-(2-hydroxyethoxy)ethoxy)ethoxy)ethyl)-2-methyl-1H-indole-5-carbonyl)piperazin-1-yl)-2-oxoethyl)-2-(methylamino)propanamide]", "IC50": "0.3 to 3"}, {"compound": "CN[C@@H](C)C(=O)N[C@H](C(=O)N1CCN(C(=O)c2c(C(=O)NCCOCCOCCNC(=O)C[C@@H]3N=C(c4ccc(Cl)cc4)c4c(sc(C)c4C)-n4c(C)nnc43)c3ccc(OC)cc3n2C)CC1)C1CCCCC1", "note": "[Example 72, N-(2-(2-(2-(2-((S)-4-(4-Chlorophenyl)-2,3,9-trimethyl-6H-thieno[3,2-f][1,2,4]triazolo[4,3-a][1,4]diazepin-6-yl)acetamido)ethoxy)ethoxy)ethyl)-2-(4-((S)-2-cyclohexyl-2-((S)-2-(methylamino)propanamido)acetyl)piperazine-1-carbonyl)-6-methoxy-1-methyl-1H-indole-3-carboxamide Hydrochloride]", "IC50": "< 0.3"}, {"compound": "CN[C@@H](C)C(=O)N[C@H](C(=O)N1CCN(C(=O)c2c(C(=O)NCCOCCOCCOCCNC(=O)C[C@@H]3N=C(c4ccc(Cl)cc4)c4c(sc(C)c4C)-n4c(C)nnc43)c3ccc(OC)cc3n2C)CC1)C1CCCCC1", "note": "[Example 73, N-(1-((S)-4-(4-chlorophenyl)-2,3,9-trimethyl-6H-thieno[3,2-f][1,2,4]triazolo[4,3-a][1,4]diazepin-6-yl)-2-oxo-6,9,12-trioxa-3-azatetradecan-14-yl)-2-(4-((S)-2-cyclohexyl-2-((S)-2-(methylamino)propanamido)acetyl)piperazine-1-carbonyl)-6-methoxy-1-methyl-1H-indole-3-carboxamide]", "IC50": "< 0.3"}]}, {"molecular_target": "T1, human XIAP_BIR3 domain purified protein", "experiment": "XIAP binding inhibitory activity, HTRF method with b-Smac ligand", "conditions": "test compound 3 μM; first symbol of the cell; read-out: XIAP binding inhibition rate when the concentration of the test compound is 3 μM", "how_it_was_run": "as §1", "units": {"inhibition at 3 µM": "%"}, "values": [{"compound": "CN[C@@H](C)C(=O)N[C@H](C(=O)N1CCN(C(=O)c2c(C(=O)NCCOCCOCCN=[N+]=[N-])c3ccc(OC)cc3n2C)CC1)C1CCCCC1", "note": "[Example 61, N-(2-(2-(2-Azidoethoxy)ethoxy)ethyl)-2-(4-((S)-2-cyclohexyl-2-((S)-2-(methylamino)propanamido)acetyl)piperazine-1-carbonyl)-6-methoxy-1-methyl-1H-indole-3-carboxamide]", "inhibition at 3 µM": "> 75"}, {"compound": "CN[C@@H](C)C(=O)N[C@H](C(=O)N1CCN(C(=O)c2c(OCCOCCOCCOCCO)c3cc(F)c(F)cc3n2C)CC1)C1CCCCC1", "note": "[Example 63, (S)-N-((S)-1-cyclohexyl-2-(4-(5,6-difluoro-3-(2-(2-(2-(2-hydroxyethoxy)ethoxy)ethoxy)ethoxy)-1-methyl-1H-indole-2-carbonyl)piperazin-1-yl)-2-oxoethyl)-2-(methylamino)propanamide]", "inhibition at 3 µM": "25 to 50"}, {"compound": "CN[C@@H](C)C(=O)N[C@H](C(=O)N1CCN(C(=O)c2ccc3c(c2)c(F)c(C)n3CCOCCOCCO)CC1)C1CCCCC1", "note": "[Example 71, (S)—N—((S)-1-Cyclohexyl-2-(4-(3-fluoro-1-(2-(2-(2-hydroxyethoxy)ethoxy)ethyl)-2-methyl-1H-indole-5-carbonyl)piperazin-1-yl)-2-oxoethyl)-2-(methylamino)propanamide]", "inhibition at 3 µM": "> 75"}, {"compound": "CN[C@@H](C)C(=O)N[C@H](C(=O)N1CCN(C(=O)c2c(C(=O)NCCOCCOCCOCCNC(=O)C[C@@H]3N=C(c4ccc(Cl)cc4)c4c(sc(C)c4C)-n4c(C)nnc43)c3cc(F)c(F)cc3n2C)CC1)C1CCCCC1", "note": "[Example 74, N-(1-((S)-4-(4-chlorophenyl)-2,3,9-trimethyl-6H-thieno[3,2-f][1,2,4]triazolo[4,3-a][1,4]diazepin-6-yl)-2-oxo-6,9,12-trioxa-3-azatetradecan-14-yl)-2-(4-((S)-2-cyclohexyl-2-((S)-2-(methylamino)propanamido)acetyl)piperazine-1-carbonyl)-5,6-difluoro-1-methyl-1H-indole-3-carboxamide]", "inhibition at 3 µM": "25 to 50"}, {"compound": "CN[C@@H](C)C(=O)N[C@H](C(=O)N1CCN(C(=O)c2cc3cc(F)ccc3n2CC(=O)NCCOCCNC(=O)C[C@@H]2N=C(c3ccc(Cl)cc3)c3c(sc(C)c3C)-n3c(C)nnc32)CC1)C1CCCCC1", "note": "[Example 75, (S)-N-((S)-2-(4-(1-(2-((2-(2-(2-((S)-4-(4-chlorophenyl)-2,3,9-trimethyl-6H-thieno[3,2-f][1,2,4]triazolo[4,3-a][1,4]diazepin-6-yl)acetamido)ethoxy)ethyl)amino)-2-oxoethyl)-5-fluoro-1H-indole-2-carbonyl)piperazin-1-yl)-1-cyclohexyl-2-oxoethyl)-2-(methylamino)propanamide]", "inhibition at 3 µM": "> 25"}, {"compound": "CN[C@@H](C)C(=O)N[C@H](C(=O)N1CCN(C(=O)c2cc3cc(F)ccc3n2CC(=O)NCCOCCOCCNC(=O)C[C@@H]2N=C(c3ccc(Cl)cc3)c3c(sc(C)c3C)-n3c(C)nnc32)CC1)C1CCCCC1", "note": "[Example 76, (S)-N-((S)-2-(4-(1-(14-((S)-4-(4-chlorophenyl)-2,3,9-trimethyl-6H-thieno[3,2-f][1,2,4]triazolo[4,3-a][1,4]diazepin-6-yl)-2,13-dioxo-6,9-dioxa-3,12-diazatetradecyl)-5-fluoro-1H-indole-2-carbonyl)piperazin-1-yl)-1-cyclohexyl-2-oxoethyl)-2-(methylamino)propanamide]", "inhibition at 3 µM": "> 25"}, {"compound": "CN[C@@H](C)C(=O)N[C@H](C(=O)N1CCN(C(=O)c2cc3cc(F)ccc3n2CC(=O)NCCOCCOCCOCCNC(=O)C[C@@H]2N=C(c3ccc(Cl)cc3)c3c(sc(C)c3C)-n3c(C)nnc32)CC1)C1CCCCC1", "note": "[Example 77, (S)-N-((S)-2-(4-(1-(17-((S)-4-(4-chlorophenyl)-2,3,9-trimethyl-6H-thieno[3,2-f][1,2,4]triazolo[4,3-a][1,4]diazepin-6-yl)-2,16-dioxo-6,9,12-trioxa-3,15-diazaheptadecyl)-5-fluoro-1H-indole-2-carbonyl)piperazin-1-yl)-1-cyclohexyl-2-oxoethyl)-2-(methylamino)propanamide]", "inhibition at 3 µM": "> 25"}]}]}
